Values quoted from earlier work, collected in publication PMC3014826 (The Biochemical journal, 2009).

Tested on: A6 TCR
Settings: ITC, 37 °C; ref Armstrong et al. (2008)

HTLV-1 Tax11-19 peptide [Native Tax]
ΔG°: -8.59 ± 0.04 kcal/mol
ΔH°: -7.1 ± 0.1 kcal/mol
ΔS°: 4.7 ± 0.4 cal/mol/K
